The source of these data is publication PMC6437697 (Journal of Medicinal Chemistry, 2019).

Type in all cases: binding
In experiment [1] the test system is 455 wild-type and mutant human protein and lipid kinases. In words: KINOMEscan panel summary. The conditions noted are these: 1 μM.
In experiment [2] the target is T1, ABL1(T315I)-phosphorylated (Homo sapiens, UniProt P00519, T315I).
T1 construct: purchased Eurofins DiscoverX KINOMEscan
As to the kind of experiment: KINOMEscan. The conditions noted are these: read-out: % control activity remaining.

Another experiment deals with T2, BRAF (Homo sapiens, UniProt P15056).
T2 construct: purchased Eurofins DiscoverX KINOMEscan
T2 sequence (P15056 whole entry): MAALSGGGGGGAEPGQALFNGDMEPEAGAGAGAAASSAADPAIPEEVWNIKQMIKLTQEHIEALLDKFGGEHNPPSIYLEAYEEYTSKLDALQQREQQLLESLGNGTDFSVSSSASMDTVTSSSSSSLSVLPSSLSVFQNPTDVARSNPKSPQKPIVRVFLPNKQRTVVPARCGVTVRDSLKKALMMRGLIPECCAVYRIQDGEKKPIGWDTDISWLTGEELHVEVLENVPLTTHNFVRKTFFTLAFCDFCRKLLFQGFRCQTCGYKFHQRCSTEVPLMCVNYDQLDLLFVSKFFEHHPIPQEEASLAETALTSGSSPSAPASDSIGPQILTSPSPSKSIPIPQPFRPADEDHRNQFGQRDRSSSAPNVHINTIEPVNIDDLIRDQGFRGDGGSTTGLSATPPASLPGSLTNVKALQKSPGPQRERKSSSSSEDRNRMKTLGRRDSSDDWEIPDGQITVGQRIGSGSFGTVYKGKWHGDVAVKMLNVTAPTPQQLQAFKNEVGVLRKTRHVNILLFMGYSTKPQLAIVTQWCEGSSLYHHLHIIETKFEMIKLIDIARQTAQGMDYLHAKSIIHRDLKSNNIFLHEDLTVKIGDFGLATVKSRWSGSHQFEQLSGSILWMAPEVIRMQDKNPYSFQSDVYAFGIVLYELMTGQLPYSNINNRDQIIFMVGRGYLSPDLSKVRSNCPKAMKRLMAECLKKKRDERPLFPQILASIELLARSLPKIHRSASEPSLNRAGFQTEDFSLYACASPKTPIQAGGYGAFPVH
In words: KINOMEscan. The conditions noted are these: read-out: % control activity remaining.

The next experiment addresses T3, CDK9 (Homo sapiens, UniProt P50750).
T3 construct: purchased Eurofins DiscoverX KINOMEscan
As to the kind of experiment: KINOMEscan. The conditions noted are these: read-out: % control activity remaining.

The target of the next experiment is T4, EGFR(G719C) (Homo sapiens, UniProt P00533, G719C).
T4 construct: purchased Eurofins DiscoverX KINOMEscan
As to the kind of experiment: KINOMEscan. The conditions noted are these: read-out: % control activity remaining.

The next experiment has as its target T5, ERK3 (Homo sapiens, UniProt Q16659).
T5 construct: purchased Eurofins DiscoverX KINOMEscan
As to the kind of experiment: KINOMEscan. The conditions noted are these: read-out: % control activity remaining.

In a further experiment the target is T6, FGFR2 (Homo sapiens, UniProt P21802).
T6 construct: purchased Eurofins DiscoverX KINOMEscan
T6 sequence (P21802 22-821): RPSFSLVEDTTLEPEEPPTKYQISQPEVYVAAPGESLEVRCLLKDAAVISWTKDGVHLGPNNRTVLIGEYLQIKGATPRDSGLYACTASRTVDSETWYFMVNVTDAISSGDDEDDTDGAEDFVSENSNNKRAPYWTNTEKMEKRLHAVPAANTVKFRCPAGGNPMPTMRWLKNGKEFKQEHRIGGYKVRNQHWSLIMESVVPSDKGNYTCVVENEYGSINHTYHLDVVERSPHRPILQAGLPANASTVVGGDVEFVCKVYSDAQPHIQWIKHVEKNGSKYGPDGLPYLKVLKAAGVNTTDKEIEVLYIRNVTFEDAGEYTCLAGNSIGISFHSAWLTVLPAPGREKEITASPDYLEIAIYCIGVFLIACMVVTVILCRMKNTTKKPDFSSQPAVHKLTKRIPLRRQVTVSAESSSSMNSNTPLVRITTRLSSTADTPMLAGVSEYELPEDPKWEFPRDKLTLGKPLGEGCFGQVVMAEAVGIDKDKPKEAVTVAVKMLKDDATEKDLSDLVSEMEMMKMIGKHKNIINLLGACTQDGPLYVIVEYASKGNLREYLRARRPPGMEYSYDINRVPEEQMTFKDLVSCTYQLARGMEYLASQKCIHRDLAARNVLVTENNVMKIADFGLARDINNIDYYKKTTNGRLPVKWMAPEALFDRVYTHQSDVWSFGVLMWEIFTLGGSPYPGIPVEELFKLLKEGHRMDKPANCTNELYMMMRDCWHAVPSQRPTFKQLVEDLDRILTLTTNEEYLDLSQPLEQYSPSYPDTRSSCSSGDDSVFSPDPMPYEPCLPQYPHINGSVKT
As to the kind of experiment: KINOMEscan. The conditions noted are these: read-out: % control activity remaining.

The next experiment concerns the target T7, LCK (Homo sapiens, UniProt P06239).
T7 construct: purchased Eurofins DiscoverX KINOMEscan
As to the kind of experiment: KINOMEscan. The conditions noted are these: read-out: % control activity remaining.

The target of a further experiment is T8, PIK3CA(I800L) (Homo sapiens, UniProt P42336, I800L).
T8 construct: purchased Eurofins DiscoverX KINOMEscan
T8 sequence (P42336 whole entry I800L): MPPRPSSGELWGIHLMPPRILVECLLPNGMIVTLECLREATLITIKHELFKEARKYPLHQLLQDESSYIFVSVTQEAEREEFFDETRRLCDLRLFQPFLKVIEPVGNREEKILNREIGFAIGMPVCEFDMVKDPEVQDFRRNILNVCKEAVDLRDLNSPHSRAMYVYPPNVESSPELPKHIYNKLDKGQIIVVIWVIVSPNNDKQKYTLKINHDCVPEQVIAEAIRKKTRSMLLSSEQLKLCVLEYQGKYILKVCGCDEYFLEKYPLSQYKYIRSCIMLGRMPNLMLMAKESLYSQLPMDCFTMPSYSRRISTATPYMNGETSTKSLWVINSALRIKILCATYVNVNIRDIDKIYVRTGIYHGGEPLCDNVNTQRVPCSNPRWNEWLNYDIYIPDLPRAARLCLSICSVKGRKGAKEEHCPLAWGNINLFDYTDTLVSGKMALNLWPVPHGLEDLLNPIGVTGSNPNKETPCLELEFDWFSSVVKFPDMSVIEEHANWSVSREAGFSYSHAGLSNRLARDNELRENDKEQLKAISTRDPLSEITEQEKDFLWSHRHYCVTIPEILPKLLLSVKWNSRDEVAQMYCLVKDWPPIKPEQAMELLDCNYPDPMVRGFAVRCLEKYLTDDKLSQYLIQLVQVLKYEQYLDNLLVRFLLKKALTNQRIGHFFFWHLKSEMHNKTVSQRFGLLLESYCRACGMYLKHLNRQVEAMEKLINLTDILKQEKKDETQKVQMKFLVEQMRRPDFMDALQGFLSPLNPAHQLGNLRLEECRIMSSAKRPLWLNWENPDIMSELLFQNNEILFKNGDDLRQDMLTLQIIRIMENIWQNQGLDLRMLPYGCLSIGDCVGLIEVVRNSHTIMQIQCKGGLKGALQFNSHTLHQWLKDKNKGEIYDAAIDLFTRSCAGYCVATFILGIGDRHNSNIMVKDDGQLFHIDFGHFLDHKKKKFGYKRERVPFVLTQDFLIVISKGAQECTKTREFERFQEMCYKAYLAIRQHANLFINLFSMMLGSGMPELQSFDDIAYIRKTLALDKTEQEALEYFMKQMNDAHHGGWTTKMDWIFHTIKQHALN
As to the kind of experiment: KINOMEscan. The conditions noted are these: read-out: % control activity remaining.

The target of another experiment is T9, PIK3CD (Homo sapiens, UniProt O00329).
T9 construct: purchased Eurofins DiscoverX KINOMEscan
T9 sequence (O00329 1-1044): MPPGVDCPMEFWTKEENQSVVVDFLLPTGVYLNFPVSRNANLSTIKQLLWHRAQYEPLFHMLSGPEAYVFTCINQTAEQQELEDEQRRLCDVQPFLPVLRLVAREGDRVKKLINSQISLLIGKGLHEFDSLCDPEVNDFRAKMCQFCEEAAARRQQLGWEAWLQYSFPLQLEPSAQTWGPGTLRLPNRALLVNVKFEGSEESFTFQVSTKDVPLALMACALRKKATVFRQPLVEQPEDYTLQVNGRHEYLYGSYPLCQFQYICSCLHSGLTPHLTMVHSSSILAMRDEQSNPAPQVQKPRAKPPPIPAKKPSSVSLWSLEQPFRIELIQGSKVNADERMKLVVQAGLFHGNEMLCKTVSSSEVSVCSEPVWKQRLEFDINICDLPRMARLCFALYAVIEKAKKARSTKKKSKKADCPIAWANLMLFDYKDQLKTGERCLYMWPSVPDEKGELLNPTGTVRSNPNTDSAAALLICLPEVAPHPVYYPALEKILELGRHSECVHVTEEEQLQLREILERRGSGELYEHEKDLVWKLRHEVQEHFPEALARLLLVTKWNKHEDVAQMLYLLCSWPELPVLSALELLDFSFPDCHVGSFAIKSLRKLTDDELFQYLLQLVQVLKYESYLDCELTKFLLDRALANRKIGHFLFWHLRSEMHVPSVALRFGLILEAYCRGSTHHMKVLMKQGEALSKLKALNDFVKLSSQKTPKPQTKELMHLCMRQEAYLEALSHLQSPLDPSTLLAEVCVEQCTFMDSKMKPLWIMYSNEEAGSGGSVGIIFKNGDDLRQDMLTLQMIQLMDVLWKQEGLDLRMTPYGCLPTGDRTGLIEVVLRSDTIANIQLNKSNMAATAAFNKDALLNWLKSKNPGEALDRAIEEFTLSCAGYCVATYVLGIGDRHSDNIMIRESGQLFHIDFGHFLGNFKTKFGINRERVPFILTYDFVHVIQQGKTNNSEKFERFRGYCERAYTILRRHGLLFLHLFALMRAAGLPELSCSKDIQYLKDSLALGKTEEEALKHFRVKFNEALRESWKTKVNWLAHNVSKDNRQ
In words: KINOMEscan. The conditions noted are these: read-out: % control activity remaining.

In a further experiment the target is T10, PRKG2 (Homo sapiens, UniProt Q13237).
T10 construct: purchased Eurofins DiscoverX KINOMEscan
T10 sequence (Q13237 1-762): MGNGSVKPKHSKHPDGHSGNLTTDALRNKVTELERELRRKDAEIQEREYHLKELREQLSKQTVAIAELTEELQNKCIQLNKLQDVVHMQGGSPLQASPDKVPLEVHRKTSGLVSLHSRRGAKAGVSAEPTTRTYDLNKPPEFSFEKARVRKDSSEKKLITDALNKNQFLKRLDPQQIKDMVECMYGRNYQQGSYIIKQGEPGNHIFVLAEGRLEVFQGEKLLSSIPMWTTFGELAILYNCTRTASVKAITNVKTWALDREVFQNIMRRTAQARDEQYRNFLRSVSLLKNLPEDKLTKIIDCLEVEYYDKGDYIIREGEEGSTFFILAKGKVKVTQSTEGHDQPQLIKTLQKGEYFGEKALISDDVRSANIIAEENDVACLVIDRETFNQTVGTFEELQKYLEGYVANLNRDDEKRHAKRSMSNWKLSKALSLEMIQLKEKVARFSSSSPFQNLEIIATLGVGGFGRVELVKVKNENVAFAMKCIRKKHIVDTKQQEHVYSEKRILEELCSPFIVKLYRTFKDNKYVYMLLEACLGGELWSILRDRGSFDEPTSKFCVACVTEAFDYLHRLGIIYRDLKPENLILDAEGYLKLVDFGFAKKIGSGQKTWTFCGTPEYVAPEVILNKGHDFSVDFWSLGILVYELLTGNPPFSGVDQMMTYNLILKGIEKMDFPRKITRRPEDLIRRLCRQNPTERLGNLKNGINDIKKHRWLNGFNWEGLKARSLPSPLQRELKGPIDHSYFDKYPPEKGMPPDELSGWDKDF
As to the kind of experiment: KINOMEscan. The conditions noted are these: read-out: % control activity remaining.

Another experiment addresses T11, RIOK2 (Homo sapiens, UniProt Q9BVS4).
T11 construct: purchased Eurofins DiscoverX KINOMEscan
As to the kind of experiment: KINOMEscan. The conditions noted are these: read-out: % control activity remaining.

Experiment [3] has as its target T12, RSK4(Kin.Dom.2-C-terminal) (Homo sapiens, UniProt Q9UK32).
T12 construct: RSK4(Kin.Dom.2-C-terminal); purchased Eurofins DiscoverX KINOMEscan
T12 sequence (Q9UK32 426-683 limits assumed): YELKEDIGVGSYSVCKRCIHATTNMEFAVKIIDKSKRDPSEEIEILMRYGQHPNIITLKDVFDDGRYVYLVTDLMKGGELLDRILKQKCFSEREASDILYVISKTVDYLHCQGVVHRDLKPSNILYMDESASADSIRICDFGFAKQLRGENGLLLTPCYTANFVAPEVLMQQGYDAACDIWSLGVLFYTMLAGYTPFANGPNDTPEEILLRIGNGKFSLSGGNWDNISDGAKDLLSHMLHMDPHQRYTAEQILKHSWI
In words: KINOMEscan. The conditions noted are these: read-out: % control activity remaining.

T11 sequence (Q9BVS4 whole entry): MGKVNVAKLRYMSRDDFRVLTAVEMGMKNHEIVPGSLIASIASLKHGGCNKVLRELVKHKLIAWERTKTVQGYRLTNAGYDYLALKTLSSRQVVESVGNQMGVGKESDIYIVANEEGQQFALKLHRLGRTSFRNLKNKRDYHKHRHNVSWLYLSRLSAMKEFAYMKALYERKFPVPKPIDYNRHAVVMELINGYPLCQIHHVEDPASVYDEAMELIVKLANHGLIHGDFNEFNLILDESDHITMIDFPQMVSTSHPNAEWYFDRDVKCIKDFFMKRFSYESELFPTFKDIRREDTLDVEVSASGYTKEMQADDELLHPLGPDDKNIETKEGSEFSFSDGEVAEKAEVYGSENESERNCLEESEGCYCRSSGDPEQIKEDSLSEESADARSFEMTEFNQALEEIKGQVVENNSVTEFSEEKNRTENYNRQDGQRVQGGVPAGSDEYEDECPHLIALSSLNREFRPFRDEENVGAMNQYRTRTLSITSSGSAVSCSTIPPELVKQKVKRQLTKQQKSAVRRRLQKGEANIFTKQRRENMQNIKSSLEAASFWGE
T7 sequence (P06239 whole entry): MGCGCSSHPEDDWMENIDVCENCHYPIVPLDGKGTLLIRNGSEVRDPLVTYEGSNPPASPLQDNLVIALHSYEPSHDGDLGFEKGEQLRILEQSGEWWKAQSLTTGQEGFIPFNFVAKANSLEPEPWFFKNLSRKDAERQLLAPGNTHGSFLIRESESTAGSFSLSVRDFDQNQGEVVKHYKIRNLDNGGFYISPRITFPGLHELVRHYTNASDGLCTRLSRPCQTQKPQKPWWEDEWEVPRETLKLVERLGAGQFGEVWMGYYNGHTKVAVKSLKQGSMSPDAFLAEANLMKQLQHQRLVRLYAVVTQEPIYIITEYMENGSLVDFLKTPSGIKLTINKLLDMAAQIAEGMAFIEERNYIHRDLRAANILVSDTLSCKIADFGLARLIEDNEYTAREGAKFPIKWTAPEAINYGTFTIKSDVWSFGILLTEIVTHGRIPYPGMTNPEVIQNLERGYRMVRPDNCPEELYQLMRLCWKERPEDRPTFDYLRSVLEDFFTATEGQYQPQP
T3 sequence (P50750 whole entry): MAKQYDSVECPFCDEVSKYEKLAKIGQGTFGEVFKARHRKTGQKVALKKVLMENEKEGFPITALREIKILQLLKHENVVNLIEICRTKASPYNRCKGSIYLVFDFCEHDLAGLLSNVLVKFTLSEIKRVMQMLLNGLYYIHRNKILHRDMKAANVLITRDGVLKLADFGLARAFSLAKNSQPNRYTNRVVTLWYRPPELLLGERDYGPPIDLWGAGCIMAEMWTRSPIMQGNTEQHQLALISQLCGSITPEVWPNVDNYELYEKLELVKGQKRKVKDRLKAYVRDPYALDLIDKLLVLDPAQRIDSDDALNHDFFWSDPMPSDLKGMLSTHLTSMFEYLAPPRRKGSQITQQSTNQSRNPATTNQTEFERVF
T5 sequence (Q16659 whole entry): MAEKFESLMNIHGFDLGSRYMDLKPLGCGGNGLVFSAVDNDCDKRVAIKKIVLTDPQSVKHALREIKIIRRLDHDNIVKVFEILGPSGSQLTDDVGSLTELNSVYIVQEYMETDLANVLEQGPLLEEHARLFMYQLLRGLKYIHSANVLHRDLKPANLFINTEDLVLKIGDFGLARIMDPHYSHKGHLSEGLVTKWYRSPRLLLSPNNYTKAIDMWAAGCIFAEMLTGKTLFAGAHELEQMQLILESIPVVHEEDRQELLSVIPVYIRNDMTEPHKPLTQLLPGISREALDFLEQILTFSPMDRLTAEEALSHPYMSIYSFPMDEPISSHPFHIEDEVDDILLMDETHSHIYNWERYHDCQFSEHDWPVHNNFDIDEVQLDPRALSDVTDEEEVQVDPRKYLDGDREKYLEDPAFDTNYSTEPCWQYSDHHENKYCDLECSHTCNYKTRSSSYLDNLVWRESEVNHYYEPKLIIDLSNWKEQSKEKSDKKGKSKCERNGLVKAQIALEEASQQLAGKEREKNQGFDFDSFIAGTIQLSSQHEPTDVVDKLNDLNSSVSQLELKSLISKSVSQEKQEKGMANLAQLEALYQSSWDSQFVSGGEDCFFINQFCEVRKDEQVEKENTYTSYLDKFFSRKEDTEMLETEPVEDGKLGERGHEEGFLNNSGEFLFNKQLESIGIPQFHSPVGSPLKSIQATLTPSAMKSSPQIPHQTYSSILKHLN

For the compound `Clc1cc(NCC2CC2)c2ncc(-c3ccc4[nH]ncc4c3)n2n1` [compound 2, 6-Chloro-N-(cyclopropylmethyl)-3-(1H-indazol-5-yl)imidazo[1,2-b]pyridazin-8-amine], in experiment [1], the “kinases with >70% inhibition / wild-type and mutant kinases tested” value is reported as 26/455. Moreover, the remaining binding at 1 µM was found to be 94% in experiment [2]; 98% at BRAF; 98% at CDK9; 91% at EGFR(G719C); 96% at ERK3; 85% at FGFR2. The remaining binding at 1 µM is 100% at LCK; 83% on PIK3CA(I800L); 92% at PIK3CD; 84% on PRKG2; 70% at RIOK2; 92% in experiment [3].

For the compound `O=C(CN1CCOCC1)N[C@H]1CC[C@H](Nc2cc(Cl)nn3c(-c4ccc5[nH]ncc5c4)cnc23)CC1` [compound 26], in experiment [1], the “kinases with >70% inhibition / wild-type and mutant kinases tested” value is 54/455. The remaining binding at 1 µM in [2] came to 50%; on BRAF it was 98%; on CDK9 it was 43%; on EGFR(G719C) it was 93%; at ERK3 it was 68%; at FGFR2, 91%. Besides, the remaining binding at 1 µM on LCK is 87%; at PIK3CA(I800L) it was 88%; on PIK3CD, 90%; at PRKG2, 64%; at RIOK2, 67%; in experiment [3], 56%.

Consider `CN1CCC(CNc2cc(Cl)nn3c(-c4cc5nc(Nc6ccccc6)[nH]c5cc4F)cnc23)CC1` [compound 31, 6-Chloro-3-(6-fluoro-2-(phenylamino)-1H-benzo[d]imidazol-5-yl)-N-((1-methylpiperidin-4-yl)methyl)imidazo[1,2-b]pyridazin-8-amine], for which, in [1], the “kinases with >70% inhibition / wild-type and mutant kinases tested” value was 4/455. The remaining binding at 1 µM in [2] was found to be 87%; at BRAF, 96%; at CDK9 it was 95%; on EGFR(G719C), 71%; on ERK3, 94%; at FGFR2, 84%. For the same compound, the remaining binding at 1 µM amounted to 82% at LCK; 58% on PIK3CA(I800L); 75% at PIK3CD; 64% on PRKG2; 61% at RIOK2; 88% in [3].
